Source: patent US10233195B2, “Anti-fibrotic pyridinones” (InterMune, Inc., priority 2014, dated 2019)
pEC50, pIC50: −log10 of the molar value.

Tests used:
[1] = system: TGF-b induced Endothelin-1 production; assay: ET-1 assay: inhibitory effect on TGF-b induced endothelin-1 production; assay type: cell-based; settings: Homo sapiens, Fibroblast; fibroblasts, stimulant (TGFb, serum, LPA etc), ET-1 in media by ELISA, 4-parameter fit
How it was run: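 Fibroblasts (primary human lung/dermal, HFL-1, 3T3) serum-starved 0-48 h, preincubated ~30 min with compound, then stimulated (TGFb, serum or LPA) for 16-48 h. Secreted ET-1 measured by ELISA; EC50 from 4-parameter logistic fit, with CC50 from ATPlite in the same wells.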

[2] = system: Fibroblasts (primary human lung and dermal, HFL-1, 3T3 etc); assay: Cell proliferation assay (BrdU incorporation); assay type: cell-based; settings: HFL1, stimulant (LPA, TGFb, serum etc), 50% inhibition of the increase of BrdU incorporation
Method: Assay of Inhibitory Effect on Cell Proliferation (BrdU Incorporation)
Fibroblasts (primary human lung and dermal, HFL-1, 3T3 etc) were plated on a 96-well plate and serum starved for 24-48 hours. The media were then exchanged for media containing stimulants (LPA, TGFb, serum etc) and cultured further for 16-24 hours before BrdU addition. After culturing for another 8 hours, cells were washed with PBS and the amount of BrdU incorporated into the cells was assayed by absorbance at 450 nm using the Cell proliferation ELISA system (RPN250, Amersham LIFE SCIENCE). The difference between the amount of BrdU incorporated in the stimulant-added well and the amount of BrdU incorporated in the well containing no stimulant represented the amount of BrdU incorporation accelerated by stimulant. The increase of BrdU incorporation without the addition of test compounds was set as 100% and the concentration of compound with 50% inhibition in the increase of BrdU incorporation (IC50 value) was determined. The test compounds were added 0-30 min before stimulant addition.
Compounds of some embodiments were prepared according to synthetic methods described herein and assay data obtained for IC50 for BrdU inhibition. The assay data obtained is presented in Table 3, in which A=less than 50 μM, B=greater than or equal to 50 μM and less than or equal to 200 μM; and C=greater than 200 μM.

Row | Compound | pEC50 [1] | pIC50 [2]
1 | O=C1CNCCN1CCOc1cc(=O)n(-c2ccc(OC(F)(F)F)cc2)cc1-c1ccc(F)cc1 [Compound 101] | < 3.70 | 3.70 to 4.30
2 | Cc1cc(=O)n(-c2cccc(NC(=O)N(C)C)c2)cc1-c1ccc(F)cc1 [Compound 417] | > 4.30 | > 4.30
3 | O=c1ccc(-c2cnn(Cc3ccccc3)c2)cn1-c1ccccc1 [Compound 385] | 3.70 to 4.30 | > 4.30
4 | Cn1cc(-c2cn(-c3ccc(Cl)cc3)c(=O)c3[nH]ccc23)cn1 [Compound 605] | > 4.30 | > 4.30
5 | Cc1cc(=O)n(-c2ccc(OC(F)(F)F)cc2)cc1-c1cccc2c1OC(F)(F)O2 [Compound 415] | > 4.30 | > 4.30
6 | Cc1cc(-c2ccc(F)cc2)cn(-c2ccc(OC(F)(F)F)cc2)c1=O [Compound 350] | 3.70 to 4.30 | 3.70 to 4.30
7 | COc1cc(=O)n(-c2ccc(OC(F)(F)F)cc2)cc1-c1cnn(C)c1 [Compound 120] | > 4.30 | > 4.30
8 | Cc1cc(=O)n(-c2ccc(OC(F)(F)F)cc2)cc1-c1cscn1 [Compound 262] | 3.70 to 4.30 | > 4.30
9 | CCOc1ccc(-n2cc(-c3cnn(C)c3)c3nn(CC)nc3c2=O)c(C)c1 [Compound 686] | 3.70 to 4.30 | > 4.30
10 | O=c1c2c(ccn2C2CC2)c(-c2cn[nH]c2)cn1-c1ccc(OC(F)(F)F)cc1 [Compound 650] | > 4.30 | > 4.30
11 | CC(C)Oc1ccc(-n2cc(-c3cccc(Cl)c3)ccc2=O)cc1 [Compound 316] | > 4.30 | > 4.30
12 | CCn1cnc2c(-c3cnn(C)c3)c[nH]c(=O)c21 [Compound 618] | 3.70 to 4.30 | 3.70 to 4.30
13 | O=c1c2[nH]ccc2c(-c2cn[nH]c2)cn1-c1ccc(Cl)cc1 [Compound 606] | > 4.30 | > 4.30
14 | CCOc1ccc(-n2cc(-c3cnn(C)c3)c(Oc3ccccc3)cc2=O)c(C)c1 [Compound 403] | > 4.30 | > 4.30
15 | Cc1cc(=O)n(-c2ccc(OC(F)(F)F)cc2)cc1-c1ccc2ccn(C)c2c1 [Compound 258] | > 4.30 | > 4.30
16 | CN(Cc1ccccc1)c1cc(=O)n(-c2ccc(OC(F)(F)F)cc2)cc1-c1cnn(C)c1 [Compound 126] | > 4.30 | > 4.30
17 | Cc1c(-c2ccc(=O)n(-c3ccc(OC(F)(F)F)cc3)c2)cnn1C [Compound 391] | > 4.30 | 3.70 to 4.30
18 | Cn1cc(-c2cn(-c3ccc(OC(F)(F)F)cc3)c(=O)c3[nH]nnc23)cn1 [Compound 631] | > 4.30 | < 3.70
19 | Cc1cc(=O)n(-c2ccc(OC(F)(F)F)cc2)cc1-c1ccc(F)c(Cl)c1 [Compound 195] | > 4.30 | > 4.30
20 | Cc1cc(-c2cnn(C)c2)cn(-c2ccccc2)c1=O [Compound 353] | 3.70 to 4.30 | < 3.70
21 | CCn1c(=O)oc2cc(-c3cn(-c4ccc(OC(F)(F)F)cc4)c(=O)cc3C)ccc21 [Compound 430] | > 4.30 | > 4.30
22 | CCOC(=O)n1cc(-c2ccc(=O)n(-c3ccccc3)c2)cn1 [Compound 73] | > 4.30 | < 3.70

Row | Compound | pEC50 [1] | pIC50 [2]
23 | CCOc1ccc(-n2cc(-c3cnn(C)c3)c(OC)cc2=O)c(C)c1 [Compound 162] | > 4.30 | > 4.30
24 | CCn1nc2c(-c3cnn(C)c3)cn(-c3ccc(OCCOC)cc3)c(=O)c2n1 [Compound 688] | 3.70 to 4.30 | 3.70 to 4.30
25 | CCOc1ccc(Oc2cc(=O)n(-c3ccc(OC(F)(F)F)cc3)cc2-c2cnn(C)c2)cc1Cl [Compound 155] | – | > 4.30
26 | CC(C)c1ccc(=O)n(-c2ccccc2)c1 [Compound 285] | < 3.70 | < 3.70
27 | Cn1cc(-c2c[nH]c(=O)cc2NCc2ccccn2)cn1 [Compound 544] | 3.70 to 4.30 | > 4.30
28 | CCn1nnc2c(=O)n(-c3ccc(OC(F)(F)F)cc3)cc(-c3ccc(F)cc3)c21 [Compound 682] | > 4.30 | > 4.30
29 | Cn1cc(-c2cn(-c3ccc(OC(F)(F)F)cc3)c(=O)c3cccnc23)cn1 [Compound 43] | > 4.30 | < 3.70
30 | CCOc1ccc(-n2cc(-c3cn(C)nc3C(F)(F)F)c(C)cc2=O)c(C)c1 [Compound 239] | – | > 4.30
31 | Cc1cc(=O)n(-c2cccc3c2OCCO3)cc1-c1ccc(F)cc1 [Compound 185] | 3.70 to 4.30 | > 4.30
32 | Cc1nc2c(-c3cnn(C)c3)cn(-c3ccc(OC(F)(F)F)cc3)c(=O)c2s1 [compound 584] | > 4.30 | > 4.30
33 | CCOc1ccc(-n2cc(-c3c(C)n[nH]c3C)ccc2=O)c(C)c1 [Compound 387] | 3.70 to 4.30 | 3.70 to 4.30
34 | CCOc1ccc(-n2cc(-c3cnn(C)c3)c3nccnc3c2=O)c(C)c1 [Compound 63] | > 4.30 | > 4.30
35 | Cc1cn(-c2ccccc2)c(=O)c2c1CCCC2 [Compound 29] | 3.70 to 4.30 | < 3.70
36 | CCn1ccc2c(-c3ccc(F)cc3)cn(-c3ccc(OC(F)(F)F)cc3)c(=O)c21 [Compound 594] | > 4.30 | > 4.30
37 | O=c1ccc(-c2ccc(F)cc2)cn1-c1ccccc1F [Compound 290] | 3.70 to 4.30 | < 3.70
38 | Cc1cc(=O)[nH]cc1-c1cccc2c1OC(F)(F)O2 [Compound 565] | > 4.30 | > 4.30
39 | CCn1nc2c(-c3cn[nH]c3)cn(-c3ccc(OC(F)(F)F)cc3)c(=O)c2n1 [Compound 620] | > 4.30 | > 4.30
40 | COc1cccc(-n2cc(C(F)(F)F)ccc2=O)c1 [Compound 276] | < 3.70 | < 3.70
41 | CCOc1ccc(-n2cc(-c3ccnnc3)c(C)cc2=O)c(C)c1 [Compound 629] | > 4.30 | < 3.70
42 | Cn1cc(-c2cn(-c3ccc(OC(F)(F)F)cc3)c(=O)c3c2nnn3CCF)cn1 [Compound 684] | 3.70 to 4.30 | > 4.30
43 | Cc1cc(=O)n(-c2ccc(Cl)cc2C)cc1-c1cnn(C)c1 [Compound 229] | 3.70 to 4.30 | > 4.30
44 | Cn1cc(-c2cn(-c3ccc(OC(F)(F)F)cc3)c(=O)cc2Oc2ccccc2Cl)cn1 [Compound 414] | > 4.30 | > 4.30

Row | Compound | pEC50 [1] | pIC50 [2]
45 | Cc1cc(=O)n(-c2ccc(OC(F)(F)F)cc2)cc1-c1cccc(F)c1 [Compound 192] | > 4.30 | > 4.30
46 | CC(C)n1ccc2c(-c3cn[nH]c3)cn(-c3ccc(OC(F)(F)F)cc3)c(=O)c21 [Compound 648] | > 4.30 | > 4.30
47 | Cn1cc(C2=CN(c3ccc(OC(F)(F)F)cc3)CC=C2Oc2ccc(C(N)=O)cc2)cn1 [Compound 535] | > 4.30 | > 4.30
48 | Cc1cc(=O)n(-c2ccc(OC(F)(F)F)cc2)cc1-c1ccc(F)c(F)c1 [Compound 196] | 3.70 to 4.30 | > 4.30
49 | O=c1c2[nH]nnc2c(-c2ccc(F)cc2)cn1-c1ccc(OC(F)(F)F)cc1 [Compound 681] | 3.70 to 4.30 | > 4.30
50 | Cc1cc(=O)[nH]cc1-c1ccc2c(c1)OCC(=O)N2C [Compound 563] | > 4.30 | > 4.30
51 | CCn1cnc2c(=O)n(-c3ccc(OC(F)(F)F)cc3)cc(-c3cn[nH]c3)c21 [Compound 640] | – | < 3.70
52 | CCOc1ccc(-n2cc(-c3cnn(C)c3)c(Cl)cc2=O)c(C)c1 [Compound 538] | – | 3.70 to 4.30
53 | Cn1cc(-c2cn(-c3ccc(OC(F)(F)F)cc3)c(=O)cc2NCc2cccnn2)cn1 [Compound 664] | – | > 4.30
54 | Cc1cc(=O)[nH]cc1-c1ccc2c(c1)N(C)C(=O)CO2 [Compound 662] | – | < 3.70
55 | CCn1ncc2c(-c3cnn(C)c3)cn(-c3ccc(OC(F)(F)F)cc3)c(=O)c21 [Compound 658] | – | < 3.70
56 | Cn1cc(-c2cn(-c3ccc(OC(F)(F)F)cc3)c(=O)c3nsnc23)cn1 [Compound 41] | – | > 4.30
57 | CCOc1ccc(-n2cc(-c3ccc(F)cc3)c(OCCOC)cc2=O)c(C)c1 [Compound 551] | – | > 4.30
58 | CCn1c(=O)oc2cc(-c3c[nH]c(=O)cc3C)ccc21 [Compound 564] | – | > 4.30
59 | COc1cccc(-n2cc(-c3cccc(Cl)c3)ccc2=O)c1 [Compound 319] | > 4.30 | –
60 | Cc1cc(=O)n(-c2ccc(OC(F)(F)F)cc2)cc1-c1ccc2c(ccn2C)c1 [Compound 255] | < 3.70 | –
61 | O=C(Nc1cc(=O)n(-c2ccc(OC(F)(F)F)cc2)cc1-c1ccc(F)cc1)Oc1ccccc1 [Compound 113] | < 3.70 | –
62 | Cn1cc(-c2cn(-c3ccc(OC(F)(F)F)cc3)c(=O)cc2OCCN2CCCC2)cn1 [Compound 145] | 3.70 to 4.30 | –
63 | Cn1cc(-c2cn(-c3ccc(OC(F)(F)F)cc3)c(=O)cc2NCc2ccc(C#N)cc2)cn1 [Compound 526] | < 3.70 | –
64 | CC(=O)Nc1cccc(-n2cc(-c3cn[nH]c3)c(C)cc2=O)c1 [Compound 217] | < 3.70 | –
65 | O=c1c2c(c(-c3ccc(F)cc3)cn1-c1ccc(OC(F)(F)F)cc1)NCCC2 [Compound 45] | < 3.70 | –
